This is an account of results in patent publication US20160075653A1, “NEMATICIDAL N-(PHENYLCYCLOALKYL)CARBOXAMIDES AND N-(PHENYLCYCLOALKYL)THIOCARBOXAMIDES” (BAYER CROPSCIENCE AKTIENGESELLSCHAFT, priority 2013, published 2016).

Read-outs that look alike come from different tables or passages of the source.

The test system of data set [1] is Meloidogyne incognita. The data set is described as follows: Meloidogyne incognita test (MELGIN), gall formation on salad seedlings. Type of data set: in vivo. The note with it: application rate 20 ppm, after 14 days. The method, then: Meioidovnve incomita—Test (MELGIN)
Solvent: 125.0 parts by weight of acetone
To produce a suitable preparation of active compound, 1 part by weight of active compound is mixed with the stated amount of solvent, and the concentrate is diluted with water to the desired concentration.
Vessels are filled with sand, a solution of the active ingredient, a suspension containing eggs and larvae of the southern root-knot nematode (Meloidogyne incognita) and salad seeds. The salad seeds germinate and the seedlings grow. Galls develop in the roots.
After 14 days the nematicidal activity is determined on the basis of the percentage of gall formation. 100% means that no galls were found; 0% means the number of galls found on the roots of the treated plants was equal to that in untreated control plants.

The nature of data set [2]: Measurement of log P values by HPLC on reversed phase columns (methods [a] pH 2.3, [b] pH 2.7, [c] pH 7.8). The note with it: for chromatographic logP: reversed phase HPLC columns. Type of data set: physicochemical. An outline of the steps: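 Retention times were converted to log P by linear interpolation between linear alkan-2-one standards (3 to 16 carbons) of known log P. Eluents, each with 10% to 95% acetonitrile gradient: phosphoric acid 0.1% at pH 2.3 [a]; formic acid 0.1% at pH 2.7, LC-MS [b]; ammonium hydrogen carbonate 0.001 molar at pH 7.8, LC-MS [c].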

[3] abbreviates: HPLC reversed phase, method [b] (pH 2.7).
Where [4] appears, read: HPLC on reversed phase column, method [b], pH 2.7.
Setting [5] is: HPLC on reversed phase column, method [c], pH 7.8.

Turning to `O=C(N[C@@H]1C[C@@H]1c1ccc(Cl)cc1Cl)c1nccnc1C(F)(F)F` (relative stereo) [Compound 566], in data set [1], the “nematicidal activity (percentage of gall formation; 100% = no galls)” value is listed as 90%. In addition, the logP in data set [2] (setting [3]) is 3.11^[b].
The corresponding values for `O=C(N[C@@H]1C[C@@H]1c1ccc(Cl)cc1Cl)c1nccnc1Cl` (relative stereo) [Compound 567] are 90% and 2.75^[b].
As to `O=C(N[C@@H]1CC[C@@H]1c1cc(F)ccc1C(F)(F)F)c1sccc1I` (relative stereo) [Compound 570], in data set [1], the “nematicidal activity (percentage of gall formation; 100% = no galls)” value is 100%. Besides, in data set [2] (setting [3]), the logP was 3.79^[b].
`O=C(N[C@@H]1CC[C@@H]1c1cc(F)ccc1C(F)(F)F)c1cccnc1Cl` (relative stereo) [Compound 571]: in data set [1], the “nematicidal activity (percentage of gall formation; 100% = no galls)” value amounted to 100%. Moreover, in data set [2] (setting [3]), the logP was 2.75^[b].
The corresponding values for `O=C(N[C@@H]1CC[C@@H]1c1cc(F)ccc1C(F)(F)F)c1cccnc1C(F)(F)F` (relative stereo) [Compound 572] are 100% and 3.06^[b].
The corresponding values for `Cn1cc(C(=O)N[C@@H]2CC[C@@H]2c2c(F)cccc2C(F)(F)F)c(C(F)F)n1` (relative stereo) [Compound 574] are 100% and 2.91^[b].
For `O=C(N[C@@H]1CC[C@@H]1c1c(F)cccc1C(F)(F)F)c1cccnc1Cl` (relative stereo) [Compound 575], in that order: 100% and 2.83^[b].
Turning to `O=C(N[C@@H]1CC[C@@H]1c1c(F)cccc1C(F)(F)F)c1nccnc1Cl` (relative stereo) [Compound 576], in data set [1], the “nematicidal activity (percentage of gall formation; 100% = no galls)” value is on record as 100%. In addition, in data set [2] (setting [3]), the logP was 3.02^[b].
The corresponding values for `O=C(N[C@@H]1CC[C@@H]1c1c(F)cccc1C(F)(F)F)c1cccnc1C(F)(F)F` (relative stereo) [Compound 577] are 100% and 3.81^[b].
For `O=C(N[C@@H]1CC[C@@H]1c1c(F)cccc1C(F)(F)F)c1sccc1I` (relative stereo) [Compound 584], in that order: 100% and 4.00^[b].
The corresponding values for `O=C(N[C@@H]1CC[C@@H]1c1c(F)cccc1C(F)(F)F)c1ccccc1C(F)(F)F` (relative stereo) [Compound 585] are 100% and 3.60^[b].
Consider `O=C(N[C@@H]1CC[C@@H]1c1cc(F)ccc1C(F)(F)F)c1ccccc1C(F)(F)F` (relative stereo) [Compound 586], for which, in data set [1], the “nematicidal activity (percentage of gall formation; 100% = no galls)” value is on record as 100%. In addition, the logP in data set [2] (setting [3]) is 3.53^[b].
Turning to `O=C(N[C@@H]1CC[C@@H]1c1cc(F)ccc1C(F)(F)F)c1cccnc1` (relative stereo) [Compound 587], the “nematicidal activity (percentage of gall formation; 100% = no galls)” value in data set [1] is given as 90%. In data set [2] (setting [3]), the logP is 2.22^[b].
The corresponding values for `O=C(N[C@@H]1CC[C@@H]1c1cccc(F)c1C(F)(F)F)c1ccccc1C(F)(F)F` (relative stereo) [Compound 589] are 100% and 3.38^[b].
With `O=C(N[C@@H]1CC[C@@H]1c1cccc(F)c1C(F)(F)F)c1ccccc1` (relative stereo) [Compound 592], the “nematicidal activity (percentage of gall formation; 100% = no galls)” value in data set [1] was 100%. For the same molecule, the logP in data set [2] (setting [4]) was 3.01^[b].
For `O=C(N[C@@H]1CC[C@@H]1c1cccc(F)c1C(F)(F)F)c1ccc(Cl)cc1Cl` (relative stereo) [Compound 594], in that order: 90% and 3.73^[b].
The corresponding values for `O=C(N[C@@H]1CC[C@@H]1c1cccc(F)c1C(F)(F)F)c1ccc(Cl)cc1` (relative stereo) [Compound 595] are 100% and 3.47^[b].
In the case of `O=C(N[C@@H]1CC[C@@H]1c1cccc(F)c1C(F)(F)F)c1ccccc1I` (relative stereo) [Compound 599], in data set [1], the “nematicidal activity (percentage of gall formation; 100% = no galls)” value turned out to be 100%. For the same molecule, the logP in data set [2] (setting [4]) is 3.39^[b].
With `O=C(N[C@@H]1CC[C@@H]1c1cccc(F)c1C(F)(F)F)c1ccccc1Cl` (relative stereo) [Compound 601], the “nematicidal activity (percentage of gall formation; 100% = no galls)” value in data set [1] was 100%. Further, in data set [2] (setting [4]), the logP was 3.23^[b].
Turning to `O=C(N[C@@H]1C[C@@H]1c1ccc(Cl)cc1Cl)c1ncccc1Br` (relative stereo) [Compound 608], in data set [1], the “nematicidal activity (percentage of gall formation; 100% = no galls)” value is listed as 100%. The logP in data set [2] (setting [4]) is 2.98^[b]; in data set [2] (setting [5]) it was 2.99^[c];.
For `CS(=O)(=O)c1ccccc1C(=O)N[C@@H]1C[C@@H]1c1ccc(Cl)cc1Cl` (relative stereo) [Compound 609], the “nematicidal activity (percentage of gall formation; 100% = no galls)” value in data set [1] stood at 100%. Besides, the logP in data set [2] (setting [4]) was 2.62^[b]; in data set [2] (setting [5]), 2.61^[c];.
The corresponding values for `Cc1occc1C(=O)N[C@@H]1C[C@@H]1c1ccc(Cl)cc1Cl` (relative stereo) [Compound 611] are 90%, 3.02^[b] and 2.89^[c];.
Turning to `O=C(N[C@@H]1CC[C@@H]1c1cccc(F)c1C(F)(F)F)c1ncccc1Cl` (relative stereo) [Compound 617], in data set [1], the “nematicidal activity (percentage of gall formation; 100% = no galls)” value came to 100%. The logP in data set [2] (setting [4]) was 2.97^[b].
In the case of `O=C(N[C@@H]1CC[C@@H]1c1ccccc1C(F)(F)F)c1cccnc1` (relative stereo) [Compound 619], in data set [1], the “nematicidal activity (percentage of gall formation; 100% = no galls)” value is listed as 90%. Further, the logP in data set [2] (setting [4]) is 2.06^[b].
The corresponding values for `O=C(N[C@@H]1CC[C@@H]1c1ccccc1C(F)(F)F)c1nccnc1Cl` (relative stereo) [Compound 623] are 100% and 2.79^[b].
For `O=C(N[C@@H]1CC[C@@H]1c1cccc(F)c1C(F)(F)F)c1ccccc1[N+](=O)[O-]` (relative stereo) [Compound 630], in that order: 100% and 2.94^[b].
The corresponding values for `O=C(N[C@@H]1CC[C@@H]1c1cccc(F)c1C(F)(F)F)c1cccnc1` (relative stereo) [Compound 631] are 90% and 2.12^[b].
For the molecule `O=C(N[C@@H]1CC[C@@H]1c1ccccc1C(F)(F)F)c1ccccc1[N+](=O)[O-]` (relative stereo) [Compound 638], the “nematicidal activity (percentage of gall formation; 100% = no galls)” value in data set [1] was 100%. For the same molecule, the logP in data set [2] (setting [4]) is 2.93^[b].
The corresponding values for `O=C(N[C@@H]1CC[C@@H]1c1cccc(F)c1C(F)(F)F)c1c(F)cccc1F` (relative stereo) [Compound 639] are 100% and 3.08^[b].
As for `O=C(N[C@@H]1CC[C@@H]1c1cccc(F)c1C(F)(F)F)c1cccnc1C(F)(F)F` (relative stereo) [Compound 641], the “nematicidal activity (percentage of gall formation; 100% = no galls)” value in data set [1] is given as 100%. Moreover, the logP in data set [2] (setting [4]) was 2.97^[b].
As to `O=C(N[C@@H]1CC[C@H]1c1cccc(F)c1C(F)(F)F)c1cccnc1C(F)(F)F` (relative stereo) [Compound 642], the “nematicidal activity (percentage of gall formation; 100% = no galls)” value in data set [1] was 90%. In addition, in data set [2] (setting [4]), the logP was 3.15^[b].
Consider `O=C(N[C@@H]1CC[C@@H]1c1cccc(F)c1C(F)(F)F)c1nccnc1Cl` (relative stereo) [Compound 645], for which the “nematicidal activity (percentage of gall formation; 100% = no galls)” value in data set [1] is 100%. Moreover, the logP in data set [2] (setting [4]) is 2.78^[b].
For `O=C(N[C@@H]1CC[C@@H]1c1cccc(F)c1C(F)(F)F)c1cccnc1Cl` (relative stereo) [Compound 647], in that order: 100% and 2.66^[b].
Consider `O=C(N[C@@H]1C[C@@H]1c1ccc(Cl)cc1Cl)c1ncccc1Cl` (relative stereo) [Compound 649], for which the “nematicidal activity (percentage of gall formation; 100% = no galls)” value in data set [1] came out at 100%. In addition, the logP in data set [2] (setting [4]) is 2.93^[b]; in data set [2] (setting [5]), 2.91^[c];.
Regarding `O=C(N[C@H]1CCC1c1c(F)cccc1F)c1cccnc1C(F)(F)F` (stereo in doubt) [Compound 236, cis-N-[2-(2,6-difluorophenyl)cyclobutyl]-2-(trifluoromethyl)nicotinamide], the “nematicidal activity (percentage of gall formation; 100% = no galls)” value in data set [1] is recorded as 100%. The chromatographic logP was 2.6 in data set [2] (HPLC-MS, method letter not given, read-out: log P) and 2.6 in data set [2] (pH 2.7, method [b], HPLC reversed phase, pH 2.7, read-out: logP).
Take `Cn1cc(C(=O)NC2CC2c2ccc(Cl)cc2)c(C(F)(F)F)n1` (centres unmarked) [Compound 11]: in data set [1], the “nematicidal activity (percentage of gall formation; 100% = no galls)” value came out at 90%. Moreover, the logP in data set [2] (HPLC on reversed phase columns, method [b], pH 2.7) was 3.43^[b].
As to `O=C(NC1CC1c1ccc(Cl)cc1Cl)c1sccc1I` (centres unmarked) [Compound 212], the “nematicidal activity (percentage of gall formation; 100% = no galls)” value in data set [1] worked out at 100%. For the same molecule, the logP is 4.10^[b] in data set [2] (method [b], HPLC reversed phase, pH 2.7) and 4.04^[c]; in data set [2] (method [c], HPLC reversed phase, pH 7.8).
